These are literature values, as cited in patent publication US11760974B2, “Personalized 3D neural culture system for generating human oligodendrocytes and studying myelination in vitro” (The Board of Trustees of the Leland Stanford Junior …, priority 2017, dated 2023).

pEC50, pIC50: −log10 of the molar value.

Usually pIC50 stands for the negative decadic logarithm of the IC50, by convention in mol/L. As a reminder, the pEC50 is the negative decadic logarithm of the EC50, by convention in mol/L.

Data set [1] has as its system Wnt pathway in L-cells expressing Wnt3A. The conditions noted are these: read-out: IC50 Wnt pathway inhibition.
Data set [2] deals with PORCN / Wnt3A-mediated TCF-luciferase activation in HEK293 cells. To be noted: read-out: IC50 Wnt3A-mediated activation of TCF-binding site driving luciferase.
For data set [3], the target named is T1, TNKS2 (Homo sapiens, UniProt Q9H2K2).
T1 sequence (Q9H2K2 1-1166): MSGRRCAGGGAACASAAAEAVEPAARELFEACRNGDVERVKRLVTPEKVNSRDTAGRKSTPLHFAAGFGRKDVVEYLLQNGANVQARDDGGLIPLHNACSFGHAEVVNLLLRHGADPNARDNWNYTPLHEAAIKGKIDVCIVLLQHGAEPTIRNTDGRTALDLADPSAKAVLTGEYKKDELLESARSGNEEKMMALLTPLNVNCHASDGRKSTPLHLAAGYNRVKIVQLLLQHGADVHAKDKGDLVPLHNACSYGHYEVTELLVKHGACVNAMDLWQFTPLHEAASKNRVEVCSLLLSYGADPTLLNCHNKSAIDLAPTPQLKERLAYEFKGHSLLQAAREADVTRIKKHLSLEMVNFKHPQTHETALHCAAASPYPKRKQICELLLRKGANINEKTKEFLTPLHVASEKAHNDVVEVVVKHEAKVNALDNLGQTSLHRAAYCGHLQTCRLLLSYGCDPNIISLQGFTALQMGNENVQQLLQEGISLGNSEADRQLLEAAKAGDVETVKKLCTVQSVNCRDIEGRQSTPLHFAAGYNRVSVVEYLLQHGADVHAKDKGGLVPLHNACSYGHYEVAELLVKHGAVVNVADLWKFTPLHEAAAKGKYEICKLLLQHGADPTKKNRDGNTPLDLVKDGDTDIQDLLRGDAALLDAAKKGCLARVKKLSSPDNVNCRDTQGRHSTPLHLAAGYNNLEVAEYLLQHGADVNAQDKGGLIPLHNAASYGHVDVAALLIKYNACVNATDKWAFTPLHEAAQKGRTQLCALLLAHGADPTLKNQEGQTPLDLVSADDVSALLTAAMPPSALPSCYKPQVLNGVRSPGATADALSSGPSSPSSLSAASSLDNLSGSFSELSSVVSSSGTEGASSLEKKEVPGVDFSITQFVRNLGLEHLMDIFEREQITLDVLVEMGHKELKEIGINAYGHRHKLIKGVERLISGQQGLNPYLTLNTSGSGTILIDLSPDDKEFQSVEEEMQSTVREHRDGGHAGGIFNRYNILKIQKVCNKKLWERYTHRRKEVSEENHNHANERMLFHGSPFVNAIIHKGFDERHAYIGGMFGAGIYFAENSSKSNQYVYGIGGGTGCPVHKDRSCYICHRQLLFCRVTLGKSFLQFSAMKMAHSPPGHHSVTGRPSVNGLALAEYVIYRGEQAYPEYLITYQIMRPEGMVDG

The target in data set [4] is T2, Porcn (Homo sapiens, UniProt Q9H237).
T2 sequence (Q9H237 1-461): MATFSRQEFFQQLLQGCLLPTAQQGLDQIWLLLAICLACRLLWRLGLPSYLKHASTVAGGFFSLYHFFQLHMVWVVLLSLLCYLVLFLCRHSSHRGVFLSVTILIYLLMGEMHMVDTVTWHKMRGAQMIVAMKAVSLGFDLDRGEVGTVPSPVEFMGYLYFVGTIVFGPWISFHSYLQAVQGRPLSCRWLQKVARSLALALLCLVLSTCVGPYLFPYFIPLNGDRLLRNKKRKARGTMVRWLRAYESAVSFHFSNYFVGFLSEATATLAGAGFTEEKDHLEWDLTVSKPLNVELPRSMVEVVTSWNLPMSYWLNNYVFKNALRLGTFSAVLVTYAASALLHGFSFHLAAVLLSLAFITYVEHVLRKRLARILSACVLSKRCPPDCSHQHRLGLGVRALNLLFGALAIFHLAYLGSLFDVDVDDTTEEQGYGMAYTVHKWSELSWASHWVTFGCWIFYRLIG
To be noted: read-out: EC50 Porcn inhibitor.

The target of data set [5] is T3, Wnt processing and secretion (Porcn) (Homo sapiens, UniProt Q9H237).
T3 sequence (Q9H237 1-461): T2 sequence (Q9H237 1-461)
To be noted: cell-free assay.

Data set [6] concerns Wnt signaling in TM3 cells (PORCN). The conditions noted are these: read-out: IC50 Wnt signaling inhibition.
Data set [7] deals with element-binding protein (CBP) (Homo sapiens, UniProt Q92793).
Sequence of element-binding protein (CBP) (Q92793 whole entry): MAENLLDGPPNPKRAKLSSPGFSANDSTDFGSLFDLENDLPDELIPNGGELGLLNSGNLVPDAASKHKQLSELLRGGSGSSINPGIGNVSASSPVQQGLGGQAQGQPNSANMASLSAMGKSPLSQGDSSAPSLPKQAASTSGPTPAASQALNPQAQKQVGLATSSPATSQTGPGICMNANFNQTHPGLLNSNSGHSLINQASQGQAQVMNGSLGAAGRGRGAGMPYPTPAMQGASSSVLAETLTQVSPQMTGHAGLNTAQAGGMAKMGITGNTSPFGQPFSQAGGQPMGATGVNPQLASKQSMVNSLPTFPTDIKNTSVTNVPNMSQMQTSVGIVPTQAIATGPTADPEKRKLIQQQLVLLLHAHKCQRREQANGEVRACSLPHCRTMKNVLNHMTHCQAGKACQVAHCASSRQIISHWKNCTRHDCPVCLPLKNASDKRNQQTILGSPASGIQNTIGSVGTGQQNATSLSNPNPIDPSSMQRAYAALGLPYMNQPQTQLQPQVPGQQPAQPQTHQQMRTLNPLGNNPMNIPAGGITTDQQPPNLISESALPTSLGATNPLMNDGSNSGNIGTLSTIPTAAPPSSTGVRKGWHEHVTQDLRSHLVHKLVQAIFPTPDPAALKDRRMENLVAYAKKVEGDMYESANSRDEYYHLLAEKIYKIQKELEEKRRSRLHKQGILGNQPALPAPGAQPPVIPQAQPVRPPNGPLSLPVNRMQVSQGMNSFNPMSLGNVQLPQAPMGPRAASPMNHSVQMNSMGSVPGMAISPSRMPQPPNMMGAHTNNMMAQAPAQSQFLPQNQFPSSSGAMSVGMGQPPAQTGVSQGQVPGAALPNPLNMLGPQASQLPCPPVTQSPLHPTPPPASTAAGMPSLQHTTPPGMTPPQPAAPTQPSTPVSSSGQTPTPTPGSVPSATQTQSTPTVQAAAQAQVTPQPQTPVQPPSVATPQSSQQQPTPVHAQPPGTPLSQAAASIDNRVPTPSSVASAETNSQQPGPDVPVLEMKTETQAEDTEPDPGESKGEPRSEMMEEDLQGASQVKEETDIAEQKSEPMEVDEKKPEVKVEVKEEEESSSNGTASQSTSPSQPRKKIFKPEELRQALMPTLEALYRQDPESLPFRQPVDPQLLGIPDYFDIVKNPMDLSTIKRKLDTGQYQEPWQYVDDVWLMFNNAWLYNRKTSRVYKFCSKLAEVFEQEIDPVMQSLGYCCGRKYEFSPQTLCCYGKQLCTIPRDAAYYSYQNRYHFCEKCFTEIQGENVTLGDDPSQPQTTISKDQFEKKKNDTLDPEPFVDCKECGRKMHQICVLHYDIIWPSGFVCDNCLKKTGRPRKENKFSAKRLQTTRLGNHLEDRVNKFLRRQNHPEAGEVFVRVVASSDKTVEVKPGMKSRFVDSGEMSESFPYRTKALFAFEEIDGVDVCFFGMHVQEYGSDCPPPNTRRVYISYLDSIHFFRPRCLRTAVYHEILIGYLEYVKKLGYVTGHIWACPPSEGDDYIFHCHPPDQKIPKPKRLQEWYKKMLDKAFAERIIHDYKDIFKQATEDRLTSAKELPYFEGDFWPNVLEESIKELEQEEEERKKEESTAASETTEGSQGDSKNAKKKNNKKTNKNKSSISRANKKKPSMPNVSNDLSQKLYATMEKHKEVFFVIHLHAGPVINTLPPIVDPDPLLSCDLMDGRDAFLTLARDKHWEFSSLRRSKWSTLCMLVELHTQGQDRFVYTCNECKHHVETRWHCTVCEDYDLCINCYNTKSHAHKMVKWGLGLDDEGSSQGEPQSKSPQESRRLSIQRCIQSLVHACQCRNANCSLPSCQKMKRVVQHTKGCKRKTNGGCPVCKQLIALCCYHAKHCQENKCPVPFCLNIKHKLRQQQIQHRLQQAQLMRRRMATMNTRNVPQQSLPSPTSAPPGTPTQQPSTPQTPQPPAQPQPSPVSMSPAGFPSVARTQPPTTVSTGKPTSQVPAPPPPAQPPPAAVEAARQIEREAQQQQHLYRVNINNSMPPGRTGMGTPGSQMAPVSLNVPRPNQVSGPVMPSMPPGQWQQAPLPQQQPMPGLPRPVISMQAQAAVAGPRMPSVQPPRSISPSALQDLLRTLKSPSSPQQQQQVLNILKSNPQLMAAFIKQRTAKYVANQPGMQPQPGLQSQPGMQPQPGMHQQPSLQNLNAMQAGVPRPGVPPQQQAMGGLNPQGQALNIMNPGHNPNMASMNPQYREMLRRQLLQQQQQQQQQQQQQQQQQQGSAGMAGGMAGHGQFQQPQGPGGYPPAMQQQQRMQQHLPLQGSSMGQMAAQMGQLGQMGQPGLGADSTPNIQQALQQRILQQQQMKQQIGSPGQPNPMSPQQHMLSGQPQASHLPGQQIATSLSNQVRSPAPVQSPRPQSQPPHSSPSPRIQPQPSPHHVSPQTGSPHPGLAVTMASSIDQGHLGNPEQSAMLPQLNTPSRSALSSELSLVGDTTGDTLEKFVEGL

As for `O=C(Nc1cccc2cccnc12)c1ccc(N2C(=O)[C@@H]3[C@H](C2=O)[C@@H]2C=C[C@H]3C2)cc1` [IWR-1-endo], in data set [1], the pIC50 is 6.74.

As to `Cc1cc(-c2ccc(CC(=O)Nc3ccc(-c4cccnc4)cc3)cc2)ccn1` [Wnt-C59], the pIC50 in data set [2] is 10.13.

For the compound `COc1ccc(-n2c(SCCCN3C(=O)c4cccc5cccc(c45)C3=O)nnc2-c2ccncc2)cc1` [WIKI4], the pIC50 in data set [3] is 7.82.

On to `O=C(CSc1nc2c(c(=O)n1-c1ccccc1)SCC2)Nc1ccc(-c2ccccc2)cn1` [IWP-L6], for which the pEC50 in data set [4] was 9.30.

Turning to `Cc1ccc2nc(NC(=O)CSc3nc4c(c(=O)n3-c3ccccc3)SCC4)sc2c1` [IWP-2], the negative logarithm of the IC50 (pIC50) in data set [5] is 7.57.

Take `Cc1cc(-c2ncc(CC(=O)Nc3ccc(-c4cnccn4)cn3)cc2C)ccn1` [LGK-974]: the pIC50 in data set [6] is 9.40.

`O=C1[C@H](Cc2ccc(O)cc2)N2C(=O)CCN(C(=O)NCc3ccccc3)[C@H]2CN1Cc1cccc2ccccc12` [ICG-001]: in data set [7], the pIC50 was 5.52.
